Data: ChEMBL document CHEMBL1151717, “In vivo active aldosterone synthase inhibitors with improved selectivity: lead optimization providing a series of pyridine substituted 3,4-dihydro-1H-quinolin-2-one derivatives” (J Med Chem, 2008)

Experiments:
[1] = target: T1, Cytochrome P450 11B2, mitochondrial (Homo sapiens, UniProt P19099); assay: Inhibition of human CYP11B2 expressed in hamster V79 MZh cells at 500 nM; assay type: cell-based; conditions: V79MZh
T1 sequence (P19099 whole entry): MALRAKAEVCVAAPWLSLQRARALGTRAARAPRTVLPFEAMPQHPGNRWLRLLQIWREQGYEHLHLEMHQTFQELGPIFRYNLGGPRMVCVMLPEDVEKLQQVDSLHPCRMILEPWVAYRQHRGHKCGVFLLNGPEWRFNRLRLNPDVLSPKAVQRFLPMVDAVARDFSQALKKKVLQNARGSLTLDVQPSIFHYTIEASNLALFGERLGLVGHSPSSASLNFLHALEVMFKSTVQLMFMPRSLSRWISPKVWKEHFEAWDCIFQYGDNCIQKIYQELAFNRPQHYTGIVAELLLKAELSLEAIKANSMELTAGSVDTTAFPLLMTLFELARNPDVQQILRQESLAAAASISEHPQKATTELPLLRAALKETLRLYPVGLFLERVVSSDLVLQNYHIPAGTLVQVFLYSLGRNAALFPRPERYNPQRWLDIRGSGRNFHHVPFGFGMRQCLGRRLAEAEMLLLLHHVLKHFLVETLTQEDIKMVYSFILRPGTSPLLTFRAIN

CYP19 (aromatase) = target: T2, CYP19 (aromatase) (Homo sapiens, UniProt P11511); assay: Inhibition of human placental CYP19 at 500 nM; assay type: functional
T2 sequence (P11511 whole entry): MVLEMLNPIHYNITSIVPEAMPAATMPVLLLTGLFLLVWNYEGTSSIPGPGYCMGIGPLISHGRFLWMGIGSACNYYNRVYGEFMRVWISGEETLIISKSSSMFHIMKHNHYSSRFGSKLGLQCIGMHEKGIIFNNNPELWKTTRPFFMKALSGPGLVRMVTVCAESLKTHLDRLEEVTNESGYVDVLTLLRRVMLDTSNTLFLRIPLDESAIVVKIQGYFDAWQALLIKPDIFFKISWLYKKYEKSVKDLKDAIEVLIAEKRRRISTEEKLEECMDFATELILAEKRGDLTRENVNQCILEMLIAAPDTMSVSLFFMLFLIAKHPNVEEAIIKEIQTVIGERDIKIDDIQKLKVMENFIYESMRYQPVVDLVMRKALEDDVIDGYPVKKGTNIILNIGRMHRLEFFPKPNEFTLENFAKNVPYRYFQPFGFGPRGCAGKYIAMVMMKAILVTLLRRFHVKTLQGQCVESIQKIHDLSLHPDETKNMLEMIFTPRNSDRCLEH

CYP1A2 = target: T3, CYP1A2 (Homo sapiens, UniProt P05177); assay: Inhibition of human recombinant CYP1A2 expressed in baculovirus-infected insect microsomes at 2 uM; assay type: ADME, Microsome
T3 sequence (P05177 whole entry): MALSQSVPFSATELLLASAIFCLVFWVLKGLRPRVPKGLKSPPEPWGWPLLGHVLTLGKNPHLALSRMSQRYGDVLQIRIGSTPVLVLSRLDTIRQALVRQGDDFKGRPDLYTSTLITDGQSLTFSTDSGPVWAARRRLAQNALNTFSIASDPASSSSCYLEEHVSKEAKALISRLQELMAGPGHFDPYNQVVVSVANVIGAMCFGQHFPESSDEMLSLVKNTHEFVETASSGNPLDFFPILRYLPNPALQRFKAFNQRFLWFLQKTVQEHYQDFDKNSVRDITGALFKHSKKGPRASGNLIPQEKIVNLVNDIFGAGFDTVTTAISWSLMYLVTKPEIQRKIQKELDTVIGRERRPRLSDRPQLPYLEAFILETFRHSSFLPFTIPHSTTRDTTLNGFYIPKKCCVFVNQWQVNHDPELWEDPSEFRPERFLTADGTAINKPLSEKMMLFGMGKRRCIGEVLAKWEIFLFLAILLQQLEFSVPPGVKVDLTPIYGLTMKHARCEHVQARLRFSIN

[2] = target: T1, Cytochrome P450 11B2, mitochondrial
[3] = target: T4, Cytochrome P450 11B1, mitochondrial (Homo sapiens, UniProt P15538)
T4 sequence (P15538 whole entry): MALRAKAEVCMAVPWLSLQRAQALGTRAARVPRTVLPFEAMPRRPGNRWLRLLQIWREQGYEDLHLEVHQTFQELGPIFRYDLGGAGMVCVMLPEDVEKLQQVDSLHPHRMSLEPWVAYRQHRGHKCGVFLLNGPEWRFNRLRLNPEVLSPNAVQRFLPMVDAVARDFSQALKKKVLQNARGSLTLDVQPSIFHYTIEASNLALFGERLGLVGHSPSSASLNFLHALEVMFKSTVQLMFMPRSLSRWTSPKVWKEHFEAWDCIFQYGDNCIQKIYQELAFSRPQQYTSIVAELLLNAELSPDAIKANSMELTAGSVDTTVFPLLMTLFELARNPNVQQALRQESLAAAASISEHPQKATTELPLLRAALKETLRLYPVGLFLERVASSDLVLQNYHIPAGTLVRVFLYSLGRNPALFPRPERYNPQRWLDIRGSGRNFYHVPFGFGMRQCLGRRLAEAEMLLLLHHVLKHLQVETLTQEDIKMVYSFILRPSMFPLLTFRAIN

Cytochrome P450 1A2 = target: T5, Cytochrome P450 1A2 (Homo sapiens, UniProt P05177)
T5 sequence (P05177 whole entry): T3 sequence (P05177 whole entry)

CYP17 = target: T6, CYP17 (Homo sapiens, UniProt P05093); assay: in vitro; conditions: human CYP17 expressed in Escherichia coli
T6 sequence (P05093 whole entry): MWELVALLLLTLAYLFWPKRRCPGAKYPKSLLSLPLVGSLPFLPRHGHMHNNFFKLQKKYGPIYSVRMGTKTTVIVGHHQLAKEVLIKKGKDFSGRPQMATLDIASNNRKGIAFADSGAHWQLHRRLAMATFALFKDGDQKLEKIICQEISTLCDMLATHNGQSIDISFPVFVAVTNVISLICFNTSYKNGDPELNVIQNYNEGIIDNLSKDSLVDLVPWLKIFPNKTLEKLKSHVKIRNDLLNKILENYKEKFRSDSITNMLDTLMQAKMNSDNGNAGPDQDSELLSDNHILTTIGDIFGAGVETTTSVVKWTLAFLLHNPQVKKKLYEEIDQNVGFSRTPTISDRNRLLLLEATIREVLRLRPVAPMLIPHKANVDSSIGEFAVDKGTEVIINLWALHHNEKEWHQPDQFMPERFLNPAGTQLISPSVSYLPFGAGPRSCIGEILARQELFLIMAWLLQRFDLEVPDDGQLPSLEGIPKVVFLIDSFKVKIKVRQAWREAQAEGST
Description: Inhibition of human CYP17 expressed in Escherichia coli at 2.5 uM

Homo sapiens = species: Homo sapiens; assay: Selectivity ratio, IC50 for human CYP11B1 to IC50 for human CYP11B2
Cytochrome P450 2B6 = target: T7, Cytochrome P450 2B6 (Homo sapiens, UniProt P20813); assay: Inhibition of human recombinant CYP2B6 expressed in baculovirus-infected insect microsomes; assay type: ADME, Microsome
T7 sequence (P20813 whole entry): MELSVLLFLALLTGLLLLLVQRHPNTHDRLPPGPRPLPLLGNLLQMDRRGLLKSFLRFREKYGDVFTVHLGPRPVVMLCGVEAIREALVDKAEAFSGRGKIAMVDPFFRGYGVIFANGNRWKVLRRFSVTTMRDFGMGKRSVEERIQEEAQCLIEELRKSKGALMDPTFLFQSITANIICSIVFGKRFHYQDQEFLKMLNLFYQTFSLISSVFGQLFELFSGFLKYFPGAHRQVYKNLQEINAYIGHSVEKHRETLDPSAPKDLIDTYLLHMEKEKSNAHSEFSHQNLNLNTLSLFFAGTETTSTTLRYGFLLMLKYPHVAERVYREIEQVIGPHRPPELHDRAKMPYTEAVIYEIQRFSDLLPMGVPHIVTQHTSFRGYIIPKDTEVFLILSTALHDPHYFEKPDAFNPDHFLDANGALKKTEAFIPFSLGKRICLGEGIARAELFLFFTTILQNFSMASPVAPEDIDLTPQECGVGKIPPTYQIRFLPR

Cytochrome P450 2C9 = Cytochrome P450 2C9 (Homo sapiens, UniProt P11712); assay: Inhibition of human recombinant CYP2C9 expressed in baculovirus-infected insect microsomes; assay type: ADME, Microsome
Cytochrome P450 2C19 = Cytochrome P450 2C19 (Homo sapiens, UniProt P33261); assay: Inhibition of human recombinant CYP2C19 expressed in baculovirus-infected insect microsomes; assay type: ADME, Microsome
Cytochrome P450 2D6 = Cytochrome P450 2D6 (Homo sapiens, UniProt P10635); assay: Inhibition of human recombinant CYP2D6 expressed in baculovirus-infected insect microsomes; assay type: ADME, Microsome
Cytochrome P450 3A4 = Cytochrome P450 3A4 (Homo sapiens, UniProt P08684); assay: Inhibition of human recombinant CYP3A4 expressed in baculovirus-infected insect microsomes; assay type: ADME, Microsome
[4] = Terminal half life in Wistar rat at 5 mg/kg, po by cassette dosing; assay type: ADME, organism-based; design: dose 5 mg/kg, route oral; conditions: in vivo, read-out: beta t1/2 (converted)
[5] = Cmax in Wistar rat at 5 mg/kg, po by cassette dosing; assay type: ADME, organism-based; design: dose 5 mg/kg, route oral; conditions: in vivo
[6] = AUC (0 to infinity) in Wistar rat at 5 mg/kg, po by cassette dosing; assay type: ADME, organism-based; design: time infinity, dose 5 mg/kg, route oral; conditions: plasma

Chain of Cytochrome P450 2C9 (P11712 whole entry): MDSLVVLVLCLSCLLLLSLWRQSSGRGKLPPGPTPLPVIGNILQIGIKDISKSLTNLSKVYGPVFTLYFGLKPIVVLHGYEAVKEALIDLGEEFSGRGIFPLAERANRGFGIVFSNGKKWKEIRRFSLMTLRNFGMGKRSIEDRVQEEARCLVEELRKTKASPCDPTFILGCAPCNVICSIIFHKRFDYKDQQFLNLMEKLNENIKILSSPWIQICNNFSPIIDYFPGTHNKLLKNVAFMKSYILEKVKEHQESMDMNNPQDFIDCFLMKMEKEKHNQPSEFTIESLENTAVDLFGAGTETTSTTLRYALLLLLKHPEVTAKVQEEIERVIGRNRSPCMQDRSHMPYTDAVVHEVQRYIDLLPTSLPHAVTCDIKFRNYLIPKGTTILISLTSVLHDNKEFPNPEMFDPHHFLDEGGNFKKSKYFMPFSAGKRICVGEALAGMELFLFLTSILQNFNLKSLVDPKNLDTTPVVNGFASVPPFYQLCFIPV
Chain of Cytochrome P450 2C19 (P33261 whole entry): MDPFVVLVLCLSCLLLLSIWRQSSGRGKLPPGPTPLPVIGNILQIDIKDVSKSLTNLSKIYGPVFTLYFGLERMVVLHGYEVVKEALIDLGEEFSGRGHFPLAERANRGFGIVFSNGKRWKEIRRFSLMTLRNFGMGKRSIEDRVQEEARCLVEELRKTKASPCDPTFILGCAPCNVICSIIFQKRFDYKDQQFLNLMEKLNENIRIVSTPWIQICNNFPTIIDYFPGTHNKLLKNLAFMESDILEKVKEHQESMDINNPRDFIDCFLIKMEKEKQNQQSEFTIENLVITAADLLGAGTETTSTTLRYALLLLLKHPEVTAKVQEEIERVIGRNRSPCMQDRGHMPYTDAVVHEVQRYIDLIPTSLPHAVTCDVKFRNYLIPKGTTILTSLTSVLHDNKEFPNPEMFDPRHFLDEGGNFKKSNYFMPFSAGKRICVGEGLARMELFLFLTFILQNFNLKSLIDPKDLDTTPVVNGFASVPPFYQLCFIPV
Chain of Cytochrome P450 3A4 (P08684 whole entry): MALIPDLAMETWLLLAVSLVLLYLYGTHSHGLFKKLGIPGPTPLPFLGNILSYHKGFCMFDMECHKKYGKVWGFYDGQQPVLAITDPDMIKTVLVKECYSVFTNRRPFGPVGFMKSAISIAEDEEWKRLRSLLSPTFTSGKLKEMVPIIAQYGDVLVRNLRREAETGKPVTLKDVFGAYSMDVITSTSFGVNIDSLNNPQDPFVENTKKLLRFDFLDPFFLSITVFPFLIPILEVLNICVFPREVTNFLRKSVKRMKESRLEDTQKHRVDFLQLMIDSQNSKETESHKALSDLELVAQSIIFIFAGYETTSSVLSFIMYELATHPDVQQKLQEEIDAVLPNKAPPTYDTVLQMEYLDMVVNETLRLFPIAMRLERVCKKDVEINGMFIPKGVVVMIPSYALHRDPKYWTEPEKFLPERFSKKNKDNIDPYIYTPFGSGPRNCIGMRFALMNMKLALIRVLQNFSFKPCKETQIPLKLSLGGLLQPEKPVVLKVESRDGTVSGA
Chain of Cytochrome P450 2D6 (P10635 whole entry): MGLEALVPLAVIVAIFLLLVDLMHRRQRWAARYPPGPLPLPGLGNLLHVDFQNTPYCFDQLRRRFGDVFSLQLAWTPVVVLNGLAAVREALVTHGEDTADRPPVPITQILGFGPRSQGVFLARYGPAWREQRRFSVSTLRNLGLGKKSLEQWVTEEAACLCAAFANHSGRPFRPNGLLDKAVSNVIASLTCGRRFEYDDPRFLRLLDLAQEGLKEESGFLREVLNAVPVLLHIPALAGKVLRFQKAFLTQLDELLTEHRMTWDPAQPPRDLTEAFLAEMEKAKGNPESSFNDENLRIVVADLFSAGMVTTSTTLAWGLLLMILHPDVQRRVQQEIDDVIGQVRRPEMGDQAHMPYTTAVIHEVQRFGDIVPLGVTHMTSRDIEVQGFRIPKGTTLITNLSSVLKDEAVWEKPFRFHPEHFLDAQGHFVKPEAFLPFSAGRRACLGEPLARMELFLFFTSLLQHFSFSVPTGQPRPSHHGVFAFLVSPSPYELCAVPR

Row | SMILES | inhibition at 0.5 µM [1] | inhibition at 0.5 µM (CYP19 (aromatase)) | inhibition at 2 µM (CYP1A2) | IC50 [2] | IC50 [3] | IC50 (Cytochrome P450 1A2) | inhibition at 2.5 µM (CYP17) | Ratio IC50 (Homo sapiens) | also measured
1 | OC1CCc2cc(-c3cccnc3)ccc2C1 (stereo unspecified) | 86% | 23% | 74% | 0.044 µM | 4.92 µM | 0.6 µM | 49% | 112 | –
2 | O=C1CCc2cc(-c3cccnc3)cc(Cl)c2N1 | – | 17% | 14% | – | – | 30.6 µM | 7% | – | –
3 | CN1C(=O)CCc2cc(-c3cncc4ccccc34)ccc21 | – | – | – | 0.0001 µM | 0.0069 µM | – | – | – | –
4 | S=C1CCc2cc(-c3cccnc3)ccc2N1 | – | < 5% | 77% | 0.0031 µM | 0.58 µM | 0.64 µM | 72% | – | –
5 | COc1cncc(-c2ccc3c(c2)CCC(=O)N3C)c1 | – | 5% | 20% | – | – | 16.5 µM | < 5% | – | –
6 | COC1CCc2cc(-c3cccnc3)ccc2C1 (stereo unspecified) | 97% | 22% | 80% | 0.0033 µM | – | – | 44% | 347 | IC50 (Cytochrome P450 2B6): 47.4 µM; IC50 (Cytochrome P450 2C9): 16.3 µM; IC50 (Cytochrome P450 2C19): < 200 µM; IC50 (Cytochrome P450 2D6): < 200 µM; IC50 (Cytochrome P450 3A4): 12.2 µM
7 | CCN1C(=O)CCc2cc(-c3cccnc3)ccc21 | – | 63% | 36% | 0.022 µM | 5.18 µM | 3.48 µM | < 5% | – | –
8 | S=C1CCc2cc(-c3cccnc3)cc(Cl)c2N1 | 97% | – | – | 0.0042 µM | 0.769 µM | – | – | 183 | –
9 | COc1cncc(-c2ccc3c(c2)CCC(=O)N3)c1 | 91% | < 5% | 25% | 0.0027 µM | 0.339 µM | 5.24 µM | 12% | 126 | –
10 | N#CC1=Cc2ccc(-c3cccnc3)cc2CC1 | 97% | < 5% | 90% | 0.0016 µM | 0.29 µM | 0.18 µM | 74% | 181 | –
11 | O=C1CSc2cc(-c3cccnc3)ccc2N1 | – | – | – | 0.012 µM | 0.525 µM | – | – | – | –
12 | c1cncc(-c2ccc3ccccc3c2)c1 | – | – | 99% | – | – | – | 40% | – | –
13 | CN1CCOc2cc(-c3cccnc3)ccc21 | 71% | – | – | 0.101 µM | 5.97 µM | – | – | 59 | –
14 | N#CC1CCc2cc(-c3cccnc3)ccc2C1 (stereo unspecified) | – | – | 72% | – | – | 0.66 µM | – | – | –
15 | O=C1Cc2cc(-c3cccnc3)ccc2N1 | – | – | 25% | – | – | – | – | – | –
16 | N#Cc1ccc(C2CCCc3cncn32)cc1 (stereo unspecified) [FADROZOLE] | – | – | – | – | – | – | – | – | half-life [4]: 3.2 h; Cmax [5]: 0.471 µg/mL; AUC(0-inf) [6]: 3.21 µg·h/mL
17 | c1cncc(-c2ccc3c(c2)CCCC3)c1 | 82% | – | – | 0.029 µM | 1.98 µM | – | – | 68 | –
18 | CCOC1CCc2cc(-c3cccnc3)ccc2C1 (stereo unspecified) | – | – | 73% | – | – | 0.62 µM | – | – | –
